Measurements from PubChem BioAssay AID1963966 (Molecular Pharmacology Branch, DTP, NCI, 2024).

System: 935938-334-R-J1-PDC spheroids with HUVEC/MSC, viability
Assay: Anticancer human tumor 935938-334-R-J1-PDC patient-derived small intestine adenocarcinoma cell line growth inhibition [PI3K]
Conditions: for IC50: curve of first compound; for viability, T/C: stronger effect = lower value
Source text: Combinatorial screen of targeted agents with the PI3K inhibitors inavolisib, alpelisib, duvelisib, and copanlisib in multi-cell type tumor spheroids
A high-throughput screen of multi-cell type tumor spheroids was designed to identify active combinations of targeted small molecules and PI3K pathway inhibitors. Complex spheroids include a stromal component modeled by human endothelial cells (HUVEC) and fibroblasts modeled by human mesenchymal stem cells (MSCs). The concentration ranges selected for each drug and investigational agent were based upon clinically achievable concentrations if the clinical Cmax of the agent was known.
Compounds. The drugs and investigational agents: inavolisib (NSC800729), alpelisib (NSC765974), duvelisib (NSC772469), copanlisib (NSC816437), ipatasertib (NSC767898), afuresertib (NSC778305), talazoparib (NSC767125), sapanisertib (NSC764658), selumetinib (NSC741078), tovorafenib (DAY101, NSC766906), vemurafenib (NSC761431), ravoxertinib (NSC781343), sotorasib (NSC818433), MRTX1133 (NSC 836407), abemaciclib (NSC 768073), palbociclib (NSC758247), venetoclax (NSC 766270), SY5609 (NSC837396), enzalutamide (NSC755605), and darolutamide (NSC825331), were obtained from the National Cancer Institute (NCI) Developmental Therapeutics Program Chemical Repository. The FDA-approved anticancer drug set is available from the NCI Developmental Therapeutics Program. […] The stock solutions were prepared in dimethyl sulfoxide (DMSO, Sigma-Aldrich, St. Louis, MO, cat. D2650) at 800-fold the tested concentration and stored at -70 degrees C prior to their use. All drugs and investigational agents were tested over a range starting from a high concentration at or near the clinical Cmax and decreasing in half-log increments. If the clinical Cmax for an agent had not been determined, the highest concentration tested was 10 microM.
Cell Culture. All cells were maintained in an incubator at 37 degrees C and 5% CO2 with 95% humidity. The PDC lines were cultured according to standard operating procedures established by the NCI PDMR (https://pdmr.cancer.gov/sops/default.htm). All PDCs were thawed and cultured in Matrigel-coated flasks prepared with a working solution of 1X Ham's F-12 nutrient mix, without supplementation (Invitrogen, Waltham, MA, cat. 11765054), 100 U/mL penicillin-streptomycin (Invitrogen, cat. 15140122), and 2.5% Matrigel (Corning Inc., Corning, NY, cat. 354248) for the first three passages. The 354836-022-R-J1-PDC, 475296-252-R-J1-PDC, and 997726-040-R-J2-PDC lines were cultured in 6A media, which includes advanced DMEM/F-12 (Thermo Fisher Scientific, cat. 12634028), 10 mM HEPES (Thermo Fisher Scientific, cat. 15630080), 1X GlutaMAX supplement (Thermo Fisher Scientific, cat. 35050061), 0.1 mg/mL primocin (InvivoGen, San Diego, CA, cat. ant-pm-2), 10% defined fetal bovine serum, heat inactivated (HyClone Laboratories Inc., Logan, UT, cat. SH30070.03HI), 50% L-WRN conditioned media (ATCC, cat. CRL-3276), 1.25 mM N-Acetyl-L-cysteine (Sigma-Aldrich, cat. A9165), 10 mM nicotinamide (Sigma-Aldrich, cat. N0636), 1X B-27 supplement (Thermo Fisher Scientific, cat. 17504044), 1X N-2 supplement (Thermo Fisher Scientific, cat. 17502048), and 10 microM Y-27632 dihydrochloride (Tocris Bioscience, Bristol, United Kingdom, cat. 1254). The 624824-186-R-J2-PDC line was cultured in 6C/Colon 1B media, which includes all 6A media components plus 50 ng/mL human EGF recombinant protein (Thermo Fisher Scientific, cat. PHG0311). […]

[1] = second compound 0.00316 µM, first compound 0.0316 µM
[2] = second compound 0.00316 µM, first compound 0.1 µM
[3] = second compound 0.00316 µM, first compound 0.316 µM
[4] = second compound 0.00316 µM, first compound 1 µM
[5] = second compound 0.00316 µM, first compound 3.16 µM
[6] = second compound 0.00316 µM, first compound 10 µM
[7] = second compound 0.01 µM, first compound 0.0316 µM
[8] = second compound 0.01 µM, first compound 0.1 µM
[9] = second compound 0.01 µM, first compound 0.316 µM
[10] = second compound 0.01 µM, first compound 1 µM
[11] = second compound 0.01 µM, first compound 3.16 µM
[12] = second compound 0.01 µM, first compound 10 µM
[13] = second compound 0.0316 µM, first compound 0.0316 µM
[14] = second compound 0.0316 µM, first compound 0.1 µM
[15] = second compound 0.0316 µM, first compound 0.316 µM
[16] = second compound 0.0316 µM, first compound 1 µM
[17] = second compound 0.0316 µM, first compound 3.16 µM
[18] = second compound 0.0316 µM, first compound 10 µM
[19] = second compound 0.1 µM, first compound 0.0316 µM
[20] = second compound 0.1 µM, first compound 0.1 µM
[21] = second compound 0.1 µM, first compound 0.316 µM
[22] = second compound 0.1 µM, first compound 1 µM
[23] = second compound 0.1 µM, first compound 3.16 µM
[24] = second compound 0.1 µM, first compound 10 µM
[25] = second compound 0.316 µM, first compound 0.0316 µM
[26] = second compound 0.316 µM, first compound 0.1 µM
[27] = second compound 0.316 µM, first compound 0.316 µM
[28] = second compound 0.316 µM, first compound 1 µM
[29] = second compound 0.316 µM, first compound 3.16 µM
[30] = second compound 0.316 µM, first compound 10 µM
[31] = second compound 1 µM, first compound 0.0316 µM
[32] = second compound 1 µM, first compound 0.1 µM
[33] = second compound 1 µM, first compound 0.316 µM
[34] = second compound 1 µM, first compound 1 µM
[35] = second compound 1 µM, first compound 3.16 µM
[36] = second compound 1 µM, first compound 10 µM
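Also: compound exposure lasted seven days before viability was read.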
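For viability, T/C in this document: percent of vehicle DMSO treated spheroid viability so 100% = untreated.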

CC1(C)CCC(CN2CCN(c3ccc(C(=O)NS(=O)(=O)c4ccc(NCC5CCOCC5)c([N+](=O)[O-])c4)c(Oc4cnc5[nH]ccc5c4)c3)CC2)=C(c2ccc(Cl)cc2)C1 + CC(Nc1ccc2c(c1)OCCn1cc(N3C(=O)OCC3C(F)F)nc1-2)C(N)=O
IC50 (second compound 0.00316 µM): 6.27 µM
IC50 (second compound 0.01 µM): 6 µM
IC50 (second compound 0.0316 µM): 5.41 µM
IC50 (second compound 0.1 µM): 6 µM
IC50 (second compound 0.316 µM): 5.04 µM
IC50 (second compound 1 µM): 3.21 µM
viability, T/C [1]: 85.9%
viability, T/C [2]: 78.6%
viability, T/C [3]: 106%
viability, T/C [4]: 115%
viability, T/C [5]: 90.3%
viability, T/C [6]: 22.5%
viability, T/C [7]: 88.7%
viability, T/C [8]: 95.1%
viability, T/C [9]: 120%
viability, T/C [10]: 83.1%
viability, T/C [11]: 80.8%
viability, T/C [12]: 26.8%
viability, T/C [13]: 90.5%
viability, T/C [14]: 78.8%
viability, T/C [15]: 76.2%
viability, T/C [16]: 103%
viability, T/C [17]: 74.4%
viability, T/C [18]: 22.1%
viability, T/C [19]: 88.5%
viability, T/C [20]: 90.9%
viability, T/C [21]: 84.5%
viability, T/C [22]: 82%
viability, T/C [23]: 100%
viability, T/C [24]: 18.6%
viability, T/C [25]: 69.6%
viability, T/C [26]: 71.3%
viability, T/C [27]: 76.3%
viability, T/C [28]: 68.8%
viability, T/C [29]: 72.7%
viability, T/C [30]: 18.7%
viability, T/C [31]: 62.6%
viability, T/C [32]: 59.7%
viability, T/C [33]: 57%
viability, T/C [34]: 65.2%
viability, T/C [35]: 47.6%
viability, T/C [36]: 20.3%

C[C@@H](NC(=O)c1ncnc(N)c1Cl)c1ncc(C(=O)Nc2cc(C(F)(F)F)c(Cl)cn2)s1 + CC(Nc1ccc2c(c1)OCCn1cc(N3C(=O)OCC3C(F)F)nc1-2)C(N)=O
IC50 (second compound 0.00316 µM): > 10 µM
IC50 (second compound 0.01 µM): > 10 µM
IC50 (second compound 0.0316 µM): > 10 µM
IC50 (second compound 0.1 µM): > 10 µM
IC50 (second compound 0.316 µM): 9.36 µM
IC50 (second compound 1 µM): 9.57 µM
viability, T/C [1]: 97.2%
viability, T/C [2]: 92.4%
viability, T/C [3]: 104%
viability, T/C [4]: 110%
viability, T/C [5]: 87.5%
viability, T/C [6]: 99.4%
viability, T/C [7]: 95.3%
viability, T/C [8]: 88.6%
viability, T/C [9]: 105%
viability, T/C [10]: 107%
viability, T/C [11]: 111%
viability, T/C [12]: 90.5%
viability, T/C [13]: 94.8%
viability, T/C [14]: 88.8%
viability, T/C [15]: 92.7%
viability, T/C [16]: 113%
viability, T/C [17]: 99.6%
viability, T/C [18]: 80.3%
viability, T/C [19]: 89%
viability, T/C [20]: 98.4%
viability, T/C [21]: 100%
viability, T/C [22]: 107%
viability, T/C [23]: 92.6%
viability, T/C [24]: 85.6%
viability, T/C [25]: 108%
viability, T/C [26]: 111%
viability, T/C [27]: 83.7%
viability, T/C [28]: 79%
viability, T/C [29]: 104%
viability, T/C [30]: 47.2%
viability, T/C [31]: 66.7%
viability, T/C [32]: 95.4%
viability, T/C [33]: 78.4%
viability, T/C [34]: 86.5%
viability, T/C [35]: 90%
viability, T/C [36]: 48.7%

Cn1ncnc1[C@H]1c2n[nH]c(=O)c3cc(F)cc(c23)N[C@@H]1c1ccc(F)cc1 + CC(Nc1ccc2c(c1)OCCn1cc(N3C(=O)OCC3C(F)F)nc1-2)C(N)=O
IC50 (second compound 0.00316 µM): > 0.1 µM
IC50 (second compound 0.01 µM): > 0.1 µM
IC50 (second compound 0.0316 µM): > 0.1 µM
IC50 (second compound 0.1 µM): > 0.1 µM
IC50 (second compound 0.316 µM): > 0.1 µM
IC50 (second compound 1 µM): 0.01 µM
viability, T/C (second compound 0.00316 µM, first compound 0.000316 µM): 87.1%
viability, T/C (second compound 0.00316 µM, first compound 0.001 µM): 99.8%
viability, T/C (second compound 0.00316 µM, first compound 0.00316 µM): 102%
viability, T/C (second compound 0.00316 µM, first compound 0.01 µM): 87.2%
viability, T/C [1]: 78.6%
viability, T/C [2]: 78.2%
viability, T/C (second compound 0.01 µM, first compound 0.000316 µM): 79.6%
viability, T/C (second compound 0.01 µM, first compound 0.001 µM): 83.4%
viability, T/C (second compound 0.01 µM, first compound 0.00316 µM): 112%
viability, T/C (second compound 0.01 µM, first compound 0.01 µM): 87.5%
viability, T/C [7]: 73.7%
viability, T/C [8]: 95.7%
viability, T/C (second compound 0.0316 µM, first compound 0.000316 µM): 84.6%
viability, T/C (second compound 0.0316 µM, first compound 0.001 µM): 102%
viability, T/C (second compound 0.0316 µM, first compound 0.00316 µM): 84.2%
viability, T/C (second compound 0.0316 µM, first compound 0.01 µM): 67.9%
viability, T/C [13]: 80.6%
viability, T/C [14]: 103%
viability, T/C (second compound 0.1 µM, first compound 0.000316 µM): 88.1%
viability, T/C (second compound 0.1 µM, first compound 0.001 µM): 102%
viability, T/C (second compound 0.1 µM, first compound 0.00316 µM): 95.3%
viability, T/C (second compound 0.1 µM, first compound 0.01 µM): 79.7%
viability, T/C [19]: 93.3%
viability, T/C [20]: 78.2%
viability, T/C (second compound 0.316 µM, first compound 0.000316 µM): 70.5%
viability, T/C (second compound 0.316 µM, first compound 0.001 µM): 94.3%
viability, T/C (second compound 0.316 µM, first compound 0.00316 µM): 82.2%
viability, T/C (second compound 0.316 µM, first compound 0.01 µM): 91.3%
viability, T/C [25]: 62.4%
viability, T/C [26]: 85.8%
viability, T/C (second compound 1 µM, first compound 0.000316 µM): 67.6%
viability, T/C (second compound 1 µM, first compound 0.001 µM): 72%
viability, T/C (second compound 1 µM, first compound 0.00316 µM): 45.1%
viability, T/C (second compound 1 µM, first compound 0.01 µM): 44.5%
viability, T/C [31]: 61.3%
viability, T/C [32]: 51%
